Measured values: patent publication US11078211B2, “Photoresponsive nucleotide analog capable of photocrosslinking in visible light region” (JAPAN ADVANCED INSTITUTE OF SCIENCE AND TECHNOLOGY, priority 2017, dated 2021)

Experiments:
[1] = irradiation with light having 350 nm; cited from earlier work
[2] = test system: ODN(T) (5′-ACGGGTGCA-3′), thymine; experiment: Photocrosslinking reaction targeted for thymine, HPLC analysis after light irradiation; settings: for conversion rate: irradiation for one hour
Protocol: (§1) To an equal amount mixture (5 μM in 50 mM Na-Cacodylate buffer (pH 7.4), 100 mM NaCl) of the oligo DNA containing pc-D [hereinafter referred to as ODN (Y·pc-D), in which Y is A (adenine) or G (guanine)] and a complementary oligo DNA [hereinafter referred to as ODN(Z), in which Z is T (thymine) or C (cytosine)] was added deoxyuridine (25 μM) as an internal standard, and irradiated with light at 4° C. (400 nm, […]). The solution was analyzed by HPLC (eluent: acetonitrile/50 mM of ammonium formate; 1-20% of acetonitrile/10 min; a flow rate: 0.2 mL/min) to evaluate photoreactivity.
FIG. 3a is an explanatory diagram showing the flow of the operations. In the ODN (A-pc-D)(5′-TGCAXCCGT-3′)(SEQ ID NO: 1) in which the target of photocrosslinking is thymine (T). the nucleoside analog (pc-D) according to the present invention is introduced as an improved photoreactive element at a position of X in the sequence.
Charts arranged in the vertical axis direction correspond to light irradiation times (0 sec, 1 sec, 5 sec. 10 sec, and 30 sec), and the horizontal axis indicates a retention time (minutes). The peaks of ODN (A⋅pc-D) and ODN (T), which were present before light irradiation (0 sec), were reduced by the light irradiation, and at the same time, a peak of a photodimer (ODN (pc-D/T)) with ODN (A⋅pc-D) and ODN (T) crosslinked appeared. As the light irradiation time increased, the peak area of(ODN (pc-D/T)) increased, confirming that the photocrosslinking reaction was progressing. FIG. 3c is a graph showing a change in a crosslinking rate as a function of light irradiation time. In FIG. 3c, the horizontal axis represents a light irradiation time (seconds), and the vertical axis represents a conversion rate (%). The conversion rate, i.e., a rate of change from a monomer to a dimer, was defined as a conversion rate of 100% for a case of being completely changed to the dimer.
The respective conversion rates were 86% at 450 nm, 70% at 500 nm, and 38% at 550 nm.
The photocrosslinking reaction was carried out by the same procedure as that of ODN (A-pc-D), using a pc-S-containing oligo DNA in which T (thymine) was a target for the photocrosslinking (5′-TGCAXCCGT-3′: hereinafter referred to as ODN (A-pc-S)) (SEQ ID NO: 5), and ODN (T) which was a complementary oligo DNA (FIG. 6a).
Charts arranged in the vertical axis direction correspond to light irradiation times (0 seconds, 60 seconds), respectively, and the horizontal axis indicates a retention time (minutes).

[3] = test system: ODN (C) (5′-ACGGGCGCA-3′), cytosine; experiment: Photocrosslinking reaction targeted for cytosine, HPLC analysis after light irradiation; settings: 400 nm, 30 seconds
Protocol: as §1
The photocrosslinking reaction was carried out by the same procedure as that of ODN (A⋅pc-D), using a pc-D-containing oligo DNA in which C (cytosine) was a target for the photocrosslinking (5′-TGCGXCCGT-3′; hereinafter referred to as ODN (G-pc-D)) (SEQ ID NO: 3) and a complementary oligo DNA (5′-ACGGGCGCA-3′: hereinafter referred to as ODN (C))(FIG. 4a)(SEQ ID NO: 4). As a result of irradiation with light having 400 nm for 30 seconds, the conversion rate by photocrosslinking was 71% (FIG. 4b).

In the case of O=c1ccc2cc3ccoc3cc2o1 [psoralen], the “time required for photoreaction” value [1] is listed as “several hours”.
For “ODN (A·pc-D): Oligo DNA 5′-TGCAXCCGT-3′, in which X is the nucleic acid photoreactive element (pc-D) (DNA TGCANCCGT; photoreactive element pc-D, chemistry not fully specified)”, the “conversion rate (monomer to photodimer)” value ([2]; 400 nm, 10 seconds of irradiation, 4° C., 5 μM, pH 7.4) was 94%, the crosslinking ([2]; 400 nm, after one hour, 4° C.) was about 100% and the conversion rate ([2]; 450 nm) was 86%. The conversion rate ([2]; 500 nm) was 70% and the conversion rate ([2]; 550 nm) was 38%.
In the case of “ODN (A·pc-S): Oligo DNA 5′-TGCAXCCGT-3′, in which X is the nucleic acid photoreactive element (pc-S) (DNA TGCANCCGT; photoreactive element pc-S, chemistry not fully specified)”, the “photodimer formation (HPLC)” value ([2]; 400 nm, 60 seconds) is reported as “a peak of the photodimer (ODN (pc-S/T) appeared”.
With “ODN (G-pc-D): Oligo DNA 5′-TGCGXCCGT-3′, in which X is the nucleic acid photoreactive element (pc-D) (DNA TGCGNCCGT; photoreactive element pc-D, chemistry not fully specified)” the “conversion rate by photocrosslinking” value [3] was 71%.
